As a reminder, the inhibition is how much of the control response was suppressed. The IC50 is the midpoint of a concentration-inhibition curve.

Assay [1] relates to Aorta. In words: Vasorelaxant activity in Sprague-Dawley rat endothelium thoracic aortic ring assessed as inhibition of phenylephrine-induced submaximal contraction at 180 uM measured after 5 mins. It counts as functional.
In assay [2] the test system is Aorta. Description: Vasorelaxant activity in Sprague-Dawley rat endothelium thoracic aortic ring assessed as inhibition of phenylephrine-induced submaximal contraction measured after 5 mins.

`OC/C=C/c1cccc(Nc2cnc3ccccc3n2)c1`: the inhibition at 180 µM in assay [1] worked out at 78.6%. Besides, the IC50 in assay [2] came to 136 µM.

With `O=C(O)/C=C/c1cccc(Nc2ccc3ccccc3n2)c1`, in assay [1], the inhibition at 180 µM is 55.9%. Also, the 50% inhibitory concentration (IC50) in assay [2] was 161 µM.

Values taken from ChEMBL document CHEMBL1799914, “Design and synthesis of small molecule RhoA inhibitors: a new promising therapy for cardiovascular diseases?” (J Med Chem, 2011).
